Reference: PubChem BioAssay (NCI)
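Abbreviation: GI50, concentration required for 50% inhibition of growth. TGI denotes the concentration required for complete inhibition of growth.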

Columns and labels:
Experiment in all cases: growth of human tumour cells (NCI), 384-well format
[1] = test system: 786-0 renal
[2] = test system: A498 renal
[3] = test system: A549 NSCLC
[4] = test system: ACHN renal
[5] = test system: BT-549 breast
[6] = test system: CAKI-1 renal
[7] = test system: CCRF-CEM leukemia
[8] = test system: COLO 205 colon
[9] = test system: DU-145 prostate
[10] = test system: EKVX NSCLC
[11] = test system: HCC-2998 colon
[12] = test system: HCT-116 colon
[13] = test system: HCT-15 colon
[14] = test system: HL-60(TB) leukemia
[15] = test system: HOP-62 NSCLC
[16] = test system: HOP-92 NSCLC
[17] = test system: HS 578T breast
[18] = test system: HT29 colon
[19] = test system: IGROV1 ovarian
[20] = test system: K-562 leukemia
[21] = test system: KM12 colon
[22] = test system: LOX IMVI melanoma
[23] = test system: M14 melanoma
[24] = test system: MALME-3M melanoma
[25] = test system: MCF7 breast
[26] = test system: MDA-MB-231 breast
[27] = test system: MDA-MB-435 melanoma
[28] = test system: MDA-MB-468 breast
[29] = test system: MOLT-4 leukemia
[30] = test system: NCI-H226 lung
[31] = test system: NCI-H23 lung
[32] = test system: NCI-H322M lung
[33] = test system: NCI-H460 NSCLC
[34] = test system: NCI-H522 lung
[35] = test system: NCI/ADR-RES ovarian
[36] = test system: OVCAR-3 ovarian
[37] = test system: OVCAR-4 ovarian
[38] = test system: OVCAR-5 ovarian
[39] = test system: OVCAR-8 ovarian
[40] = test system: PC-3 prostate
[41] = test system: RPMI-8226 leukemia
[42] = test system: RXF 393 renal
[43] = test system: SF-268 CNS
[44] = test system: SF-295 CNS
[45] = test system: SF-539 CNS
[46] = test system: SK-MEL-2 melanoma
[47] = test system: SK-MEL-28 melanoma
[48] = test system: SK-MEL-5 melanoma
[49] = test system: SK-OV-3 ovarian
[50] = test system: SN12C renal
[51] = test system: SNB-19 CNS
[52] = test system: SNB-75 CNS
[53] = test system: SR leukemia
[54] = test system: SW-620 colon
[55] = test system: T-47D breast
[56] = test system: TK-10 renal
[57] = test system: U251 glioblastoma
[58] = test system: UACC-257 melanoma
[59] = test system: UACC-62 melanoma
[60] = test system: UO-31 renal

Q: Which results are given for `CC(=O)OC1C(C)OC(Oc2c(-c3ccc(O)cc3)oc3cc(O)cc(O)c3c2=O)C(O)C1OC(C)=O` (stereo not given)?
A: GI50 [1]: 62 µM; TGI [1]: > 100 µM; GI50 [2]: 92.1 µM; TGI [2]: > 100 µM; GI50 [3]: > 100 µM; TGI [3]: > 100 µM; GI50 [4]: 74.5 µM; TGI [4]: > 100 µM; GI50 [5]: 19.4 µM; TGI [5]: 44.7 µM; GI50 [6]: > 100 µM; TGI [6]: > 100 µM; GI50 [7]: 20.2 µM; TGI [7]: 37.6 µM; GI50 [8]: 93.1 µM; TGI [8]: > 100 µM; GI50 [9]: 27.6 µM; TGI [9]: 77.1 µM; GI50 [10]: 83.8 µM; TGI [10]: > 100 µM; GI50 [11]: 38.7 µM; TGI [11]: > 100 µM; GI50 [12]: 39.2 µM; TGI [12]: > 100 µM; GI50 [13]: 87.7 µM; TGI [13]: > 100 µM; GI50 [14]: 17.5 µM; TGI [14]: 31.5 µM; GI50 [15]: 20.8 µM; TGI [15]: 49 µM; GI50 [16]: 28.6 µM; TGI [16]: 76.8 µM; GI50 [17]: 21.5 µM; TGI [17]: 62.4 µM; GI50 [18]: 63.6 µM; TGI [18]: > 100 µM; GI50 [19]: 44.7 µM; TGI [19]: > 100 µM; GI50 [20]: 34.4 µM; TGI [20]: > 100 µM; GI50 [21]: 41.9 µM; TGI [21]: > 100 µM; GI50 [22]: 31.6 µM; TGI [22]: > 100 µM; GI50 [23]: 39.8 µM; TGI [23]: > 100 µM; GI50 [24]: 20.2 µM; TGI [24]: 49.8 µM; GI50 [25]: 37.2 µM; TGI [25]: > 100 µM; GI50 [26]: 25.7 µM; TGI [26]: 74.1 µM; GI50 [27]: 40.8 µM; TGI [27]: > 100 µM; GI50 [28]: 19.6 µM; TGI [28]: 38.7 µM; GI50 [29]: 17.4 µM; TGI [29]: 31.9 µM; GI50 [30]: 34.2 µM; TGI [30]: > 100 µM; GI50 [31]: 28.8 µM; TGI [31]: 82.3 µM; GI50 [32]: 46.9 µM; TGI [32]: > 100 µM; GI50 [33]: 39.5 µM; TGI [33]: > 100 µM; GI50 [34]: 20.5 µM; TGI [34]: 46.2 µM; GI50 [35]: > 100 µM; TGI [35]: > 100 µM; GI50 [36]: 23.3 µM; TGI [36]: 57.7 µM; GI50 [37]: 36.4 µM; TGI [37]: > 100 µM; GI50 [38]: > 100 µM; TGI [38]: > 100 µM; GI50 [39]: 31.4 µM; TGI [39]: > 100 µM; GI50 [40]: 38.9 µM; TGI [40]: > 100 µM; GI50 [41]: 15.1 µM; TGI [41]: 30.8 µM; GI50 [42]: 23 µM; TGI [42]: 65.9 µM; GI50 [43]: 28.8 µM; TGI [43]: 92.7 µM; GI50 [44]: 33.9 µM; TGI [44]: > 100 µM; GI50 [45]: > 100 µM; TGI [45]: > 100 µM; GI50 [46]: 30 µM; TGI [46]: 73.8 µM; GI50 [47]: 32.2 µM; TGI [47]: > 100 µM; GI50 [48]: 32.5 µM; TGI [48]: > 100 µM; GI50 [49]: 46.3 µM; TGI [49]: > 100 µM; GI50 [50]: 32.2 µM; TGI [50]: > 100 µM; GI50 [51]: 50.4 µM; TGI [51]: > 100 µM; GI50 [52]: 32 µM; TGI [52]: 97 µM; GI50 [53]: 17.7 µM; TGI [53]: 34.2 µM; GI50 [54]: 59.1 µM; TGI [54]: > 100 µM; GI50 [55]: 19.5 µM; TGI [55]: 47.7 µM; GI50 [56]: > 100 µM; TGI [56]: > 100 µM; GI50 [57]: 46.4 µM; TGI [57]: > 100 µM; GI50 [58]: 43.5 µM; TGI [58]: > 100 µM; GI50 [59]: 23.1 µM; TGI [59]: 63.6 µM; GI50 [60]: > 100 µM; TGI [60]: > 100 µM
